# Residues, ends and D or L forms follow the SMILES beside them. *: point of attachment. Palmitoyl = CCCCCCCCCCCCCCCC(=O)*; X1 = CCCCCCCCCCCOCCCC(=O)*
# T1: Gi-coupled receptor APJ (HEK cells stably expressing the APJ receptor) (Homo sapiens, UniProt P35414)
# T1 construct: expressed in transfected cells; host or cells: HEK cells stably expressing APJ
# T1 sequence (P35414 1-380): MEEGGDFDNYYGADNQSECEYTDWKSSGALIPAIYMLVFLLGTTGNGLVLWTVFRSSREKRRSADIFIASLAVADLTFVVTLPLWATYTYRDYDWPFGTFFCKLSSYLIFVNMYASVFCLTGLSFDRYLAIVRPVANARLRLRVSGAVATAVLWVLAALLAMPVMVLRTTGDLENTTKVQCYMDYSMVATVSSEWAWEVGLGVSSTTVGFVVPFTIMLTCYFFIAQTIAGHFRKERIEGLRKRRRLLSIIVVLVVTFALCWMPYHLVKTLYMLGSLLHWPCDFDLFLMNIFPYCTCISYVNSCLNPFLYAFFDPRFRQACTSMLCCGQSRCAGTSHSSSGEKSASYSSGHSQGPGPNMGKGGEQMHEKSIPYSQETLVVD
# Key:
# [1] = target: T1, Gi-coupled receptor APJ (HEK cells stably expressing the APJ receptor); assay: HTRF cAMP assay: inhibition of NKH477 stimulated increase in cAMP; type: cell-based; conditions: read-out: EC50 value (nM), SEM
# From the text: HTRF (homogeneous time resolved fluorescence) is a technology developed by Cisbio Bioassays based on TR-FRET (time-resolved fluorescence resonance energy transfer). Cisbio Bioassays has developed a wide selection of HTRF-based assays compatible with whole cells, thereby enabling functional assays to run under more physiological conditions. The IP-One assays are competitive immunoassays using cryptate-labeled anti-IPI monoclonal antibody and d2-labeled IP1. IP1 is a relatively stable downstream metabolite of IP3, and accumulates in cells following Gq receptor activation.
# cAMP kits based on a competitive immunoassay using cryptate-labeled anti-cAMP antibody and d2-labeled cAMP were used to assay the effects of APJ compounds of the present invention. This assay measures the increase in intracellular cAMP upon Gs-coupled receptor activation as well as decrease in forskolin (or a more soluble version of forskolin—NKH477) stimulated increase in cAMP upon Gi-coupled receptor activation.
# [2] = tested on: mouse heart function; assay: Langendorff heart preparation, developed pressure; type: ex vivo; conditions: isolated perfused mouse heart, 15 minutes
# Experimental: A pressure-sensing balloon catheter was inserted in the LV cavity to record changes in the developed pressure. Heart function was assessed by measuring standard parameters such as heart rate, mean peak systolic pressure, mean end diastolic pressure, developed pressure, dP/dt max, and dP/dt min.
# [3] = target: APJ receptor (Homo sapiens (Human), UniProt P35414); assay: cell-based or functional assay
Molecule,EC50 [1],"EC50 value (nM), HTRF cAMP assay [3]","effect on mouse heart function (developed pressure, inotropic effect) [2]"
CCCCCCCCCCCCCCCC(=O)N[C@H](C(=O)N[C@H](C(=O)N[C@@H](Cc1ccccc1)C(=O)N[C@@H](CCCNC(=N)N)C(=O)N[C@@H](CO)C(=O)N[C@@H](CO)C(=O)N[C@@H](CCCNC(=N)N)C(=O)N[C@@H](CCC(=O)O)C(=O)N[C@@H](CCCCN)C(=O)N[C@@H](CCCNC(=N)N)C(=O)N[C@@H](CCCNC(=N)N)C(=O)N[C@@H](CO)C(=O)N[C@@H](C)C(=O)N[C@@H](CC(=O)O)C(=O)N[C@H](C(=O)N[C@@H](Cc1ccccc1)C(=O)N[C@H](C(N)=O)[C@@H](C)CC)[C@@H](C)CC)C(C)C)[C@@H](C)O [Compound 12] (Palmitoyl-TVFRSSREKRRSADIFI-NH2),1 to 500 nM,,demonstrates inotropic activity
apelin-13 [reference compound],,,increase in developed pressure
CCCCCCCCCCCCCCCC(=O)N[C@H](C(=O)N[C@H](C(=O)N[C@@H](Cc1ccccc1)C(=O)N[C@@H](Cc1c[nH]c2ccccc12)C(=O)N[C@@H](CO)C(=O)N[C@@H](CO)C(=O)N[C@@H](CCCNC(=N)N)C(=O)N[C@@H](CCC(=O)O)C(=O)N[C@@H](CCCCN)C(=O)N[C@@H](CCCNC(=N)N)C(=O)N[C@@H](CCCNC(=N)N)C(=O)N[C@@H](CO)C(=O)N[C@@H](C)C(=O)N[C@@H](CC(=O)O)C(=O)N[C@H](C(=O)N[C@@H](Cc1ccccc1)C(=O)N[C@H](C(N)=O)[C@@H](C)CC)[C@@H](C)CC)C(C)C)[C@@H](C)O [Compound 36] (Palmitoyl-TVFWSSREKRRSADIFI-NH2),1000 to 5000 nM,,
Palmitoyl-TVFRSSREKRRSADIFI-NH2 (SMILES CCCCCCCCCCCCCCCC(=O)N[C@H](C(=O)N[C@H](C(=O)N[C@@H](Cc1ccccc1)C(=O)N[C@@H](CCCNC(=N)N)C(=O)N[C@@H](CO)C(=O)N[C@@H](CO)C(=O)N[C@@H](CCCNC(=N)N)C(=O)N[C@@H](CCC(=O)O)C(=O)N[C@@H](CCCCN)C(=O)N[C@@H](CCCNC(=N)N)C(=O)N[C@@H](CCCNC(=N)N)C(=O)N[C@@H](CO)C(=O)N[C@@H](C)C(=O)N[C@@H](CC(=O)O)C(=O)N[C@H](C(=O)N[C@@H](Cc1ccccc1)C(=O)N[C@H](C(N)=O)[C@@H](C)CC)[C@@H](C)CC)C(C)C)[C@@H](C)O) [Compound 12 Pal-TVFRSSREKRRSADIFI-Amide],,≤ 500 nM,
Palmitoyl-FRSSREKRRSADIFI-NH2 (SMILES CCCCCCCCCCCCCCCC(=O)N[C@@H](Cc1ccccc1)C(=O)N[C@@H](CCCNC(=N)N)C(=O)N[C@@H](CO)C(=O)N[C@@H](CO)C(=O)N[C@@H](CCCNC(=N)N)C(=O)N[C@@H](CCC(=O)O)C(=O)N[C@@H](CCCCN)C(=O)N[C@@H](CCCNC(=N)N)C(=O)N[C@@H](CCCNC(=N)N)C(=O)N[C@@H](CO)C(=O)N[C@@H](C)C(=O)N[C@@H](CC(=O)O)C(=O)N[C@H](C(=O)N[C@@H](Cc1ccccc1)C(=O)N[C@H](C(N)=O)[C@@H](C)CC)[C@@H](C)CC) [Compound 11 Pal-FRSSREKRRSADIFI-Amide],,≤ 500 nM,

# More lines, main results first:
EC50 [1],"EC50 value (nM), HTRF cAMP assay [3]",Molecule,"effect on mouse heart function (developed pressure, inotropic effect) [2]"
1 to 500 nM,,CCCCCCCCCCCCCCCC(=O)N[C@H](C(=O)N[C@H](C(=O)N[C@@H](Cc1ccccc1)C(=O)N[C@@H](CCCNC(=N)N)C(=O)N[C@@H](CO)C(=O)N[C@@H](CO)C(=O)N[C@@H](CCCNC(=N)N)C(=O)N[C@@H](CCC(=O)O)C(=O)N[C@@H](CCCCN)C(=O)N[C@@H](CCCNC(=N)N)C(=O)N[C@@H](CCCNC(=N)N)C(=O)N[C@@H](CO)C(=O)N[C@@H](C)C(=O)N[C@@H](CC(=O)O)C(=O)N[C@H](C(=O)N[C@@H](C)C(=O)N[C@H](C(N)=O)[C@@H](C)CC)[C@@H](C)CC)C(C)C)[C@@H](C)O [Compound 39] (Palmitoyl-TVFRSSREKRRSADIAI-NH2),
501 to 1000 nM,,CCCCCCCCCCCCCCCC(=O)N[C@H](C(=O)N[C@H](C(=O)N[C@@H](Cc1ccccc1)C(=O)N[C@@H](CCCNC(=N)N)C(=O)N[C@@H](CO)C(=O)N[C@@H](CO)C(=O)N[C@@H](CCCNC(=N)N)C(=O)N[C@@H](CCC(=O)O)C(=O)N[C@@H](CCCCN)C(=O)N[C@@H](CCCNC(=N)N)C(=O)N[C@@H](CCCNC(=N)N)C(=O)N[C@@H](CO)C(=O)N[C@@H](C)C(=O)N[C@@H](CC(=O)O)C(=O)N[C@H](C(=O)N[C@@H](Cc1ccccc1)C(=O)N[C@@H](C)C(N)=O)[C@@H](C)CC)C(C)C)[C@@H](C)O [Compound 40] (Palmitoyl-TVFRSSREKRRSADIFA-NH2),
1 to 500 nM,,CCCCCCCCCCCOCCCC(=O)N[C@H](C(=O)N[C@H](C(=O)N[C@@H](Cc1ccccc1)C(=O)N[C@@H](CCCNC(=N)N)C(=O)N[C@@H](CO)C(=O)N[C@@H](CO)C(=O)N[C@@H](CCCNC(=N)N)C(=O)N[C@@H](CCC(=O)O)C(=O)N[C@@H](CCCCN)C(=O)N[C@@H](CCCNC(=N)N)C(=O)N[C@@H](CCCNC(=N)N)C(=O)N[C@@H](CO)C(=O)N[C@@H](C)C(=O)N[C@@H](CC(=O)O)C(=O)N[C@H](C(=O)N[C@@H](Cc1ccccc1)C(=O)N[C@H](C(N)=O)[C@@H](C)CC)[C@@H](C)CC)C(C)C)[C@@H](C)O [Compound 60] (X1-TVFRSSREKRRSADIFI-NH2),
> 10000 nM,,CCCCCCCCCCCCCCCC(=O)N[C@H](C(=O)N[C@@H](CCCNC(=N)N)C(=O)N1CCC[C@H]1C(=O)N[C@H](C(=O)N[C@@H](C)C(=O)N[C@@H](CC(N)=O)C(=O)N[C@@H](C)C(=O)N[C@@H](CCCNC(=N)N)C(=O)N[C@@H](CC(C)C)C(=O)N[C@@H](CCCNC(=N)N)C(=O)N[C@@H](CC(C)C)C(=O)N[C@@H](CCCNC(=N)N)C(N)=O)C(C)C)C(C)C [Compound 83] (Palmitoyl-VRPVANARLRLR-NH2),
,≤ 500 nM,Palmitoyl-QTIAGHFRKERIEGLRKRRRLLA-NH2 (SMILES CCCCCCCCCCCCCCCC(=O)N[C@@H](CCC(N)=O)C(=O)N[C@H](C(=O)N[C@H](C(=O)N[C@@H](C)C(=O)NCC(=O)N[C@@H](Cc1c[nH]cn1)C(=O)N[C@@H](Cc1ccccc1)C(=O)N[C@@H](CCCNC(=N)N)C(=O)N[C@@H](CCCCN)C(=O)N[C@@H](CCC(=O)O)C(=O)N[C@@H](CCCNC(=N)N)C(=O)N[C@H](C(=O)N[C@@H](CCC(=O)O)C(=O)NCC(=O)N[C@@H](CC(C)C)C(=O)N[C@@H](CCCNC(=N)N)C(=O)N[C@@H](CCCCN)C(=O)N[C@@H](CCCNC(=N)N)C(=O)N[C@@H](CCCNC(=N)N)C(=O)N[C@@H](CCCNC(=N)N)C(=O)N[C@@H](CC(C)C)C(=O)N[C@@H](CC(C)C)C(=O)N[C@@H](C)C(N)=O)[C@@H](C)CC)[C@@H](C)CC)[C@@H](C)O) [Compound 96 Pal-QTIAGHFRKERIEGLRKRRRLLA-Amide],

# Source: patent US20120028888A1, “APJ RECEPTOR COMPOUNDS” (priority 2008, published 2012)
